Data set [1] has as its target T1, catalytic domain (JH1, amino acids 826-1132) of human JAK2 (Homo sapiens, UniProt O60674).
T1 construct: catalytic domain (JH1, amino acids 826-1132) of human JAK2; FLAG (N); biotin (biotinylated); purchased Carna Biosciences 08-445-20N; host or cells: baculovirus expression system
Description: JAK2 LanthaScreen JH1 binding assay. The settings on record: read-out: JH1 Bind IC50. The method, then:
Example A. JAK2 LanthaScreen […] Binding Assay
JAK2 JH1 binding assay utilizes catalytic domain (JH1, amino acids 826-1132) of human JAK2 expressed as N-terminal FLAG-tagged, biotinylated protein in a baculovirus expression system (Carna Biosciences, Product #08-445-20N). The assay was conducted in black 384-well polystyrene plates in a final reaction volume of 20 μL. JAK2 JH1 (1.5 nM) was incubated with compounds (100 nL serially diluted in DMSO) in the presence of 50 nM fluorescent JAK2-JH1 tracer and 0.5 nM Streptavidin-Tb cryptate (Cisbio Part #610SATLB) in assay buffer (50 mM Tris, pH=7.5, 10 mM MgCl2, 0.01% Brij-35, 0.1% BSA, 1 mM EGTA, 5% Glycerol and 5 mM DTT). Non-specific binding was accessed in the presence of 2 mM ATP. After incubation for 2 hours at 25° C., LanthaScreen signals were read on a PHERAstar FS plate reader (BMG LABTECH). Data was analyzed with IDBS XLfit and GraphPad Prism 5.0 software using a four parameter dose response curve to determine IC50 for each compound.
(In general: In TR-FRET formats the signal depends on donor and acceptor labels being close together.)

The target in another data set is T2, FLT3 (Homo sapiens, UniProt P36888).
T2 sequence (P36888 27-993): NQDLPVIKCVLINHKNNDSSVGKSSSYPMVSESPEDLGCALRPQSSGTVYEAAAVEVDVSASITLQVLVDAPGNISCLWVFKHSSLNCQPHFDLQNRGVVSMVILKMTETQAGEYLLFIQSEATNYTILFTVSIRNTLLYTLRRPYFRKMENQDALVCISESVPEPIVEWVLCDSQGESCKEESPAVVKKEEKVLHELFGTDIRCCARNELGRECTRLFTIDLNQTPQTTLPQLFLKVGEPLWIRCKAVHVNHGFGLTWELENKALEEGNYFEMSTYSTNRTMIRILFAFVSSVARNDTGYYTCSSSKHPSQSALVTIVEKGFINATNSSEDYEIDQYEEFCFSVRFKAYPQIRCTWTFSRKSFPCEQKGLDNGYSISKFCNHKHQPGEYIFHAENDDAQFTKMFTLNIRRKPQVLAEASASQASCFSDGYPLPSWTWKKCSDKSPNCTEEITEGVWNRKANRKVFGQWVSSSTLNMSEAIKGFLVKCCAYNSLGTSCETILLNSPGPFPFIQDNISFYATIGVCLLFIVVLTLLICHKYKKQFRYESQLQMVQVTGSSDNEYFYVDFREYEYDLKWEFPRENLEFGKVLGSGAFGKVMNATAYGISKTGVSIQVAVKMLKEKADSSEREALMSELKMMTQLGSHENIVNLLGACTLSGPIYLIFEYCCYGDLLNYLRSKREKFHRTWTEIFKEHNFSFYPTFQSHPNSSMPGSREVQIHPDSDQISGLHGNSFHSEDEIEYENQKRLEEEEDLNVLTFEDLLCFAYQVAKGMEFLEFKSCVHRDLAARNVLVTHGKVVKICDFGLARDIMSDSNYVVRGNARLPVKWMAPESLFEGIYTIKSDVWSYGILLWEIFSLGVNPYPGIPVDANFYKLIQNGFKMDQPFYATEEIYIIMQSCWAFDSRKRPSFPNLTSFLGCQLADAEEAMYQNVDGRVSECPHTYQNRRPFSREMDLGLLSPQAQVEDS
Description: FLT3 enzymatic assay. The class given is biochemical. The note with it: 1 mM ATP. Summed up:
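Kinase reaction at room temperature in HEPES 50 mM pH 7.0 with 10 mM MgCl2, 1 mM DTT: 0.011 nM FLT3, 1 mM ATP, 500 nM biotinylated TK substrate, 0.5% DMSO. After 60 min, HTRF read as 665/620 nm ratio; IC50 from fit of percent control activity versus log concentration.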

Data set [2] in a line: In vivo pharmacokinetics, rat. Also noted: species or system Sprague Dawley rats. The settings on record: male, Sprague Dawley, plasma, oral 3.0 mg/kg. The method, then:
Example H. In Vivo Pharmacokinetics
Test compounds were administered to male Sprague Dawley rats or male and female Cynomolgus monkeys intravenously or via oral gavage. For intravenous (IV) dosing, test compounds were dosed at 1 mg/kg using a formulation of 10% dimethylacetamide (DMAC), 10% propylene glycol (PG) in acidified saline via IV bolus for rat or 10 min IV infusion for monkey. For oral (PO) dosing, test compounds were dosed at 3.0 mg/kg using 5% DMAC in 0.5% methylcellulose in citrate buffer (pH˜2.5). Blood samples were collected at predose and various time points up to 24 hours postdose. All blood samples were collected using EDTA as the anticoagulant and centrifuged to obtain plasma samples. The plasma concentrations of test compounds were determined by LC-MS/MS methods. The measured plasma concentrations were used to calculate PK parameters by standard noncompartmental methods using Phoenix® WinNonlin software program (version 8.0, Pharsight Corporation) or similar software. In rats and monkeys, cassette dosing of test compounds were conducted to obtain preliminary PK parameters. In vivo pharmacokinetic experiments with male beagle dogs may be performed under the conditions described above.

The text below walks through data of patent publication US12084430B2, “Tricyclic urea compounds as JAK2 V617F inhibitors” (Incyte Corporation, priority 2022, dated 2024).

pIC50: −log10 of the molar value. Where two headings read alike, the source gives them in different places.

T1 sequence (O60674 826-1132): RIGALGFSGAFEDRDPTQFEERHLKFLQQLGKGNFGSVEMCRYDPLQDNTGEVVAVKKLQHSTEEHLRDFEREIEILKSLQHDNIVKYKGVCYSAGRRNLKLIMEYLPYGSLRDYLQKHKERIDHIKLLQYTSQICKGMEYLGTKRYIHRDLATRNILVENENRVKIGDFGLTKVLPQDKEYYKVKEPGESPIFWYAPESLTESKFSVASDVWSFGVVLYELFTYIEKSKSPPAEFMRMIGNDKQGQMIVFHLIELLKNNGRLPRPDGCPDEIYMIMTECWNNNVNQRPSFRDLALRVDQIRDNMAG

As for `[2H]C([2H])([2H])n1ncc2cc(-c3c(-c4cn(C)nc4OC)[nH]c4ncc5c(c34)n([C@@H]3CC[C@@H](NC(=O)OC)C3)c(=O)n5C)ccc21` [Example 5, Methyl ((1R,3R)-3-(7-(3-methoxy-1-methyl-1H-pyrazol-4-yl)-3-methyl-8-(1-(methyl-d3)-1H-indazol-5-yl)-2-oxo-3,6-dihydroimidazo[4,5-d]pyrrolo[2,3-b]pyridin-1(2H)-yl)cyclopentyl)carbamate], the results for the pIC50 (in data set [1] (Table A); in data set [1] (Table C); against FLT3) were under 6.00, under 6.00 and 5.60 to 5.90, respectively. Moreover, the AUC (usually concentration integrated over time) in data set [2] was 0.5 to 1.5 µM·h.

`[2H]C([2H])([2H])Oc1ccc(-c2c(-c3cn(C([2H])([2H])[2H])nc3F)[nH]c3ncc4c(c23)n([C@@H]2CC[C@@H](NC(=O)OC)C2)c(=O)n4C([2H])([2H])[2H])cc1` [Example 9, Methyl ((1R,3R)-3-(7-(3-fluoro-1-(methyl-d3)-1H-pyrazol-4-yl)-8-(4-(methoxy-d3)phenyl)-3-(methyl-d3)-2-oxo-3,6-dihydroimidazo[4,5-d]pyrrolo[2,3-b]pyridin-1(2H)-yl)cyclopentyl)carbamate]: the pIC50 (as a rule, −log10 of the IC50, conventionally taken in molar units) was under 6.00 in data set [1] (Table A), under 6.00 in data set [1] (Table C) and 5.90 to 6.60 against FLT3. Further, in data set [2], the AUC was over 1.5 µM·h.

Take `[2H]C([2H])([2H])n1ncc2cc(-c3c(-c4cn(C([2H])([2H])C([2H])([2H])[2H])nc4F)[nH]c4ncc5c(c34)n([C@@H]3CC[C@@H](NC(=O)OC)C3)c(=O)n5C([2H])([2H])[2H])ccc21` [Example 15, Methyl ((1R,3R)-3-(7-(1-(ethyl-d5)-3-fluoro-1H-pyrazol-4-yl)-3-(methyl-d3)-8-(1-(methyl-d3)-1H-indazol-5-yl)-2-oxo-3,6-dihydroimidazo[4,5-d]pyrrolo[2,3-b]pyridin-1(2H)-yl)cyclopentyl)carbamate]: the pIC50 is under 6.00 in data set [1] (Table A), under 6.00 in data set [1] (Table C) and 5.90 to 6.60 against FLT3. Also, in data set [2], the AUC was 0.5 to 1.5 µM·h.

With `[2H]C([2H])([2H])n1cc(-c2[nH]c3ncc4c(c3c2-c2ccc3c(cnn3C([2H])([2H])[2H])c2)n([C@@H]2CC[C@@H](NC(=O)OC)C2)c(=O)n4C([2H])([2H])[2H])c(F)n1` [Example 6, Methyl ((1R,3R)-3-(7-(3-fluoro-1-(methyl-d3)-1H-pyrazol-4-yl)-3-(methyl-d3)-8-(1-(methyl-d3)-1H-indazol-5-yl)-2-oxo-3,6-dihydroimidazo[4,5-d]pyrrolo[2,3-b]pyridin-1(2H)-yl)cyclopentyl)carbamate], the figures for the pIC50 (in data set [1] (Table A); in data set [1] (Table C); at FLT3) were under 6.00, under 6.00 and 5.60 to 5.90, respectively. In addition, the AUC in data set [2] lay within 0.5 to 1.5 µM·h.

Regarding `COC(=O)N[C@@H]1CC[C@@H](n2c(=O)n(C)c3cnc4[nH]c(-c5cn(C)nc5OC)c(-c5ccccc5)c4c32)C1` [Example 2, Methyl ((1R,3R)-3-(7-(3-methoxy-1-methyl-1H-pyrazol-4-yl)-3-methyl-2-oxo-8-phenyl-3,6-dihydroimidazo[4,5-d]pyrrolo[2,3-b]pyridin-1(2H)-yl)cyclopentyl)carbamate], the pIC50 in data set [1] (Table A) was under 6.00; in data set [1] (Table C), under 6.00; against FLT3, under 5.60. Besides, the AUC in data set [2] is over 1.5 µM·h.

For the compound `[2H]C([2H])([2H])n1cc(-c2[nH]c3ncc4c(c3c2-c2ccc(C(C)(C)O)cc2)n([C@@H]2CC[C@@H](NC(=O)OC)C2)c(=O)n4C([2H])([2H])[2H])c(F)n1` [Example 10, Methyl ((1R,3R)-3-(7-(3-fluoro-1-(methyl-d3)-1H-pyrazol-4-yl)-8-(4-(2-hydroxypropan-2-yl)phenyl)-3-(methyl-d3)-2-oxo-3,6-dihydroimidazo[4,5-d]pyrrolo[2,3-b]pyridin-1(2H)-yl)cyclopentyl)carbamate], the pIC50 in data set [1] (Table A) was under 6.00; in data set [1] (Table C) it was under 6.00; against FLT3 it was 5.90 to 6.60. Also, the AUC in data set [2] was over 1.5 µM·h.

In the case of `[2H]C([2H])([2H])n1cc(-c2[nH]c3ncc4c(c3c2-c2ccc(F)cc2)n([C@@H]2CC[C@@H](NC(=O)OC)C2)c(=O)n4C([2H])([2H])[2H])c(F)n1` [Example 7, Methyl ((1R,3R)-3-(7-(3-fluoro-1-(methyl-d3)-1H-pyrazol-4-yl)-8-(4-fluorophenyl)-3-(methyl-d3)-2-oxo-3,6-dihydroimidazo[4,5-d]pyrrolo[2,3-b]pyridin-1(2H)-yl)cyclopentyl)carbamate], the results for the negative logarithm of the IC50 (pIC50) (in data set [1] (Table A); in data set [1] (Table C); against FLT3) were under 6.00, under 6.00 and under 5.60, respectively. The compound further yielded an AUC in data set [2] of over 1.5 µM·h.

Take `[2H]C([2H])([2H])n1cc(-c2[nH]c3ncc4c(c3c2-c2ccc3c(cnn3C(C)C)c2)n([C@@H]2CC[C@@H](NC(=O)OC)C2)c(=O)n4C([2H])([2H])[2H])c(F)n1` [Example 13, Methyl ((1R,3R)-3-(7-(3-fluoro-1-(methyl-d3)-1H-pyrazol-4-yl)-8-(1-isopropyl-1H-indazol-5-yl)-3-(methyl-d3)-2-oxo-3,6-dihydroimidazo[4,5-d]pyrrolo[2,3-b]pyridin-1(2H)-yl)cyclopentyl)carbamate]: the pIC50 in data set [1] (Table A) was under 6.00; in data set [1] (Table C) it was under 6.00; against FLT3, under 5.60. In addition, in data set [2], the AUC fell in the range of 0.5 to 1.5 µM·h.

On to `[2H]C([2H])([2H])n1cc(-c2[nH]c3ncc4c(c3c2-c2ccc3c(c2)COC3(C)C)n([C@@H]2CC[C@@H](NC(=O)OC)C2)c(=O)n4C([2H])([2H])[2H])c(F)n1` [Example 8, Methyl ((1R,3R)-3-(8-(1,1-dimethyl-1,3-dihydroisobenzofuran-5-yl)-7-(3-fluoro-1-(methyl-d3)-1H-pyrazol-4-yl)-3-(methyl-d3)-2-oxo-3,6-dihydroimidazo[4,5-d]pyrrolo[2,3-b]pyridin-1(2H)-yl)cyclopentyl)carbamate], for which the pIC50 in data set [1] (Table A) was under 6.00; in data set [1] (Table C) it was under 6.00; at FLT3 it was under 5.60. In data set [2], the AUC was over 1.5 µM·h.

For the compound `[2H]C([2H])([2H])n1cc(-c2[nH]c3ncc4c(c3c2-c2ccc3c(cnn3CC(F)F)c2)n([C@@H]2CC[C@@H](NC(=O)OC)C2)c(=O)n4C([2H])([2H])[2H])c(F)n1` [Example 14, Methyl ((1R,3R)-3-(8-(1-(2,2-difluoroethyl)-1H-indazol-5-yl)-7-(3-fluoro-1-(methyl-d3)-1H-pyrazol-4-yl)-3-(methyl-d3)-2-oxo-3,6-dihydroimidazo[4,5-d]pyrrolo[2,3-b]pyridin-1(2H)-yl)cyclopentyl)carbamate], the pIC50 in data set [1] (Table A) is under 6.00; in data set [1] (Table C), under 6.00; at FLT3, 5.60 to 5.90. In data set [2], this compound returned an AUC of 0.5 to 1.5 µM·h.
